From the kinase profiling compilation of Christmann-Franck et al. (2016)
Each block holds one compound with its values, some of them ahead of it.

Key:
Assay in all cases: KINOMEscan competition binding
Settings in all cases: compound 10.0 µM
DCLK1 (human) = DCLK1 (human) (UniProt O15075)
DCLK2 (human) = DCLK2 (human) (UniProt Q8N568)
GAK (human) = GAK (human) (UniProt O14976)
MAPK7 (human) = MAPK7 (human) (UniProt Q13164)
MYLK (human) = MYLK (human) (UniProt Q15746)
NLK (human) = NLK (human) (UniProt Q9UBE8)
PKN1 (human) = PKN1 (human) (UniProt Q16512)
PLK1 (human) = PLK1 (human) (UniProt P53350)
PLK3 (human) = PLK3 (human) (UniProt Q9H4B4)
PRKCQ (human) = PRKCQ (human) (UniProt Q04759)
TTK (human) = TTK (human) (UniProt P33981)
[1] = system: ABL1 (human), P00519 [T315I]
ACVR1 (human) = ACVR1 (human) (UniProt Q04771)
AURKA (human) = AURKA (human) (UniProt O14965)
AURKB (human) = AURKB (human) (UniProt Q96GD4)
AURKC (human) = AURKC (human) (UniProt Q9UQB9)
BMPR1B (human) = BMPR1B (human) (UniProt O00238)
CAMKK2 (human) = CAMKK2 (human) (UniProt Q96RR4)
CLK2 (human) = CLK2 (human) (UniProt P49760)
CSF1R (human) = CSF1R (human) (UniProt P07333)
FGFR4 (human) = FGFR4 (human) (UniProt P22455)
FLT3 (human) = FLT3 (human) (UniProt P36888)
[2] = system: FLT3 (human), P36888 [ITD]
[3] = system: FLT3 (human), P36888 [K663Q]
KIT (human) = KIT (human) (UniProt P10721)
[4] = system: KIT (human), P10721 [V559D/V654A]
[5] = system: KIT (human), P10721 [V559D]
MAP3K3 (human) = MAP3K3 (human) (UniProt Q99759)
MKNK2 (human) = MKNK2 (human) (UniProt Q9HBH9)
NUAK1 (human) = NUAK1 (human) (UniProt O60285)
NUAK2 (human) = NUAK2 (human) (UniProt Q9H093)
PDGFRA (human) = PDGFRA (human) (UniProt P16234)
PDGFRB (human) = PDGFRB (human) (UniProt P09619)
PIK3CA (human) = PIK3CA (human) (UniProt P42336)
PIK3CD (human) = PIK3CD (human) (UniProt O00329)
PIK3CG (human) = PIK3CG (human) (UniProt P48736)
PIP5K1A (human) = PIP5K1A (human) (UniProt Q99755)
PLK4 (human) = PLK4 (human) (UniProt O00444)
PRKAA1 (human) = PRKAA1 (human) (UniProt Q13131)
PRKD1 (human) = PRKD1 (human) (UniProt Q15139)
PRKD3 (human) = PRKD3 (human) (UniProt O94806)
[6] = system: RET (human), P07949 [V804L]
ROS1 (human) = ROS1 (human) (UniProt P08922)
RPS6KA1 KD2 (human) = RPS6KA1 KD2 (human) (UniProt Q15418)
RPS6KA6 KD2 (human) = RPS6KA6 KD2 (human) (UniProt Q9UK32)
STK16 (human) = STK16 (human) (UniProt O75716)
TAOK1 (human) = TAOK1 (human) (UniProt Q7L7X3)
TAOK3 (human) = TAOK3 (human) (UniProt Q9H2K8)
TNK1 (human) = TNK1 (human) (UniProt Q13470)
TNK2 (human) = TNK2 (human) (UniProt Q07912)
[7] = target: TYK2 JH1 catalytic (human) (UniProt P29597)
BRSK2 (human) = BRSK2 (human) (UniProt Q8IWQ3)
FLT4 (human) = FLT4 (human) (UniProt P35916)
MARK4 (human) = MARK4 (human) (UniProt Q96L34)
MERTK (human) = MERTK (human) (UniProt Q12866)
PRKCD (human) = PRKCD (human) (UniProt Q05655)
[8] = system: RET (human), P07949 [M918T]
SRPK1 (human) = SRPK1 (human) (UniProt Q96SB4)
STK33 (human) = STK33 (human) (UniProt Q9BYT3)

Sequence of PLK1 (human) (P53350 whole entry, looked up): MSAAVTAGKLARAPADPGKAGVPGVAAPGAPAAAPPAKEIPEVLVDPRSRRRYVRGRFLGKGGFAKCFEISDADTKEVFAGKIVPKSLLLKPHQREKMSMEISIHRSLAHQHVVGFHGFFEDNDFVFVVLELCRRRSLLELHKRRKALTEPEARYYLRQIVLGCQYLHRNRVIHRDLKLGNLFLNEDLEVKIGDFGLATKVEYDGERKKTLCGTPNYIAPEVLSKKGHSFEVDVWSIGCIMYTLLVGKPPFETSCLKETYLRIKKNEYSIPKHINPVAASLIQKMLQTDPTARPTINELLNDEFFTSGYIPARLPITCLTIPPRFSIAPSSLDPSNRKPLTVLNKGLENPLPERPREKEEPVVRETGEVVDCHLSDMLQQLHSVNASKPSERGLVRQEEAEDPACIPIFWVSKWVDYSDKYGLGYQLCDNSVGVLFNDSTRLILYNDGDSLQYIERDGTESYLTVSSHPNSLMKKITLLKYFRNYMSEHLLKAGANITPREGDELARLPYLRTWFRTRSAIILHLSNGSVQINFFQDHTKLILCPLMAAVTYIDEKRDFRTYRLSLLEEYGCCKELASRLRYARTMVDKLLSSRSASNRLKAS
Sequence of DCLK1 (human) (O15075 whole entry, looked up): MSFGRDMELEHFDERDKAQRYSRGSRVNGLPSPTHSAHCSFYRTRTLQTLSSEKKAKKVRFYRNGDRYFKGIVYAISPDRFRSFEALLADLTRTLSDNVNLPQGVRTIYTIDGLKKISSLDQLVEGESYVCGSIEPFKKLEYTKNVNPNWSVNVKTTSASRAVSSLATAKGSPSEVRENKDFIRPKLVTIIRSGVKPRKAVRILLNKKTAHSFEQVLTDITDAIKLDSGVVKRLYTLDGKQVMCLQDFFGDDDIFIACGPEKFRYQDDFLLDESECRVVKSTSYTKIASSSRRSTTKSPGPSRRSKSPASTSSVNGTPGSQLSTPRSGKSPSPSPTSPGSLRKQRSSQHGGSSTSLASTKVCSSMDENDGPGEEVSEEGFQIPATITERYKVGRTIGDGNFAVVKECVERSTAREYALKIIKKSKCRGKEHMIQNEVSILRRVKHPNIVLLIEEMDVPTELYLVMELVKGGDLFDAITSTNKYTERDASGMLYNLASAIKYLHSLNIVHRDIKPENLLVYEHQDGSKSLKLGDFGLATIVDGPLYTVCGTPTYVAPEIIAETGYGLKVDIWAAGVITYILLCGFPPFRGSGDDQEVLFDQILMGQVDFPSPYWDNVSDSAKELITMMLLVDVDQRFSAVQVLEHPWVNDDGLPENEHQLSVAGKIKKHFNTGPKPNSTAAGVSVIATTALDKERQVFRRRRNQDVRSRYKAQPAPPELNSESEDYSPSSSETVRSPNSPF
Sequence of PIP5K1A (human) (Q99755 whole entry, looked up): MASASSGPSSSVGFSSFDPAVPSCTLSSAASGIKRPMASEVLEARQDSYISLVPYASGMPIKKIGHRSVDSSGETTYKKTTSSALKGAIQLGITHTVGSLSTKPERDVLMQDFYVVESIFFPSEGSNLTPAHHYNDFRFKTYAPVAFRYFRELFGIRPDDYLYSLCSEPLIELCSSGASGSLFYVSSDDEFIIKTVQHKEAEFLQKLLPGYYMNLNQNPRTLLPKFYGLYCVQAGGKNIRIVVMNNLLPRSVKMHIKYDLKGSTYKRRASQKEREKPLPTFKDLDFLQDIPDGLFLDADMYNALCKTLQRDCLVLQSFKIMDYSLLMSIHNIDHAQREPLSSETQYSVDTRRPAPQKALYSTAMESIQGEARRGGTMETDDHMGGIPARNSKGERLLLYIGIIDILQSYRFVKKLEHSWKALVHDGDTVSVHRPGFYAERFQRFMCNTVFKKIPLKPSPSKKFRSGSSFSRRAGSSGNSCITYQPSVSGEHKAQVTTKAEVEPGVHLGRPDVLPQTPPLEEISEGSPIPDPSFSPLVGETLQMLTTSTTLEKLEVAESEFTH
Sequence of MAPK7 (human) (Q13164 whole entry, looked up): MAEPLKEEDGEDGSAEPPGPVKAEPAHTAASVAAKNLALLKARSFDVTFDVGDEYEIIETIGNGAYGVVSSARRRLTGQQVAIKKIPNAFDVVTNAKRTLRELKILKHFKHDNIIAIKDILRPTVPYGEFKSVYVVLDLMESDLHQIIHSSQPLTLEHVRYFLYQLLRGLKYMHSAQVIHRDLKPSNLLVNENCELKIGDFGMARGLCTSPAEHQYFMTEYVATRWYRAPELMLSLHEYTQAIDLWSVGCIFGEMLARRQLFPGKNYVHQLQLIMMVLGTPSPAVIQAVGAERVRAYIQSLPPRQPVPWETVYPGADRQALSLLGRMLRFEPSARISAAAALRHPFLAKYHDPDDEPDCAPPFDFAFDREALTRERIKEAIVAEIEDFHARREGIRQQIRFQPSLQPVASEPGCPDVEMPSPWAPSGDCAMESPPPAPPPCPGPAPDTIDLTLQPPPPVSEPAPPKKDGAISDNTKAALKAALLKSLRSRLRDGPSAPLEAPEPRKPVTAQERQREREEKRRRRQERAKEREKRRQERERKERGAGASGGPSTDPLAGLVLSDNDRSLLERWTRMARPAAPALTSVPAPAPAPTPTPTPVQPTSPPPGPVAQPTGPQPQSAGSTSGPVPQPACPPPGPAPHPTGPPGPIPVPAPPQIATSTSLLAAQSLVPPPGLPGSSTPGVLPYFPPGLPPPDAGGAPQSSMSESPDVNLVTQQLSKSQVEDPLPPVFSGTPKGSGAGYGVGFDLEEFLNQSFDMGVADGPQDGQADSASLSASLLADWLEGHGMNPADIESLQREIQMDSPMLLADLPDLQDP
Sequence of GAK (human) (O14976 whole entry, looked up): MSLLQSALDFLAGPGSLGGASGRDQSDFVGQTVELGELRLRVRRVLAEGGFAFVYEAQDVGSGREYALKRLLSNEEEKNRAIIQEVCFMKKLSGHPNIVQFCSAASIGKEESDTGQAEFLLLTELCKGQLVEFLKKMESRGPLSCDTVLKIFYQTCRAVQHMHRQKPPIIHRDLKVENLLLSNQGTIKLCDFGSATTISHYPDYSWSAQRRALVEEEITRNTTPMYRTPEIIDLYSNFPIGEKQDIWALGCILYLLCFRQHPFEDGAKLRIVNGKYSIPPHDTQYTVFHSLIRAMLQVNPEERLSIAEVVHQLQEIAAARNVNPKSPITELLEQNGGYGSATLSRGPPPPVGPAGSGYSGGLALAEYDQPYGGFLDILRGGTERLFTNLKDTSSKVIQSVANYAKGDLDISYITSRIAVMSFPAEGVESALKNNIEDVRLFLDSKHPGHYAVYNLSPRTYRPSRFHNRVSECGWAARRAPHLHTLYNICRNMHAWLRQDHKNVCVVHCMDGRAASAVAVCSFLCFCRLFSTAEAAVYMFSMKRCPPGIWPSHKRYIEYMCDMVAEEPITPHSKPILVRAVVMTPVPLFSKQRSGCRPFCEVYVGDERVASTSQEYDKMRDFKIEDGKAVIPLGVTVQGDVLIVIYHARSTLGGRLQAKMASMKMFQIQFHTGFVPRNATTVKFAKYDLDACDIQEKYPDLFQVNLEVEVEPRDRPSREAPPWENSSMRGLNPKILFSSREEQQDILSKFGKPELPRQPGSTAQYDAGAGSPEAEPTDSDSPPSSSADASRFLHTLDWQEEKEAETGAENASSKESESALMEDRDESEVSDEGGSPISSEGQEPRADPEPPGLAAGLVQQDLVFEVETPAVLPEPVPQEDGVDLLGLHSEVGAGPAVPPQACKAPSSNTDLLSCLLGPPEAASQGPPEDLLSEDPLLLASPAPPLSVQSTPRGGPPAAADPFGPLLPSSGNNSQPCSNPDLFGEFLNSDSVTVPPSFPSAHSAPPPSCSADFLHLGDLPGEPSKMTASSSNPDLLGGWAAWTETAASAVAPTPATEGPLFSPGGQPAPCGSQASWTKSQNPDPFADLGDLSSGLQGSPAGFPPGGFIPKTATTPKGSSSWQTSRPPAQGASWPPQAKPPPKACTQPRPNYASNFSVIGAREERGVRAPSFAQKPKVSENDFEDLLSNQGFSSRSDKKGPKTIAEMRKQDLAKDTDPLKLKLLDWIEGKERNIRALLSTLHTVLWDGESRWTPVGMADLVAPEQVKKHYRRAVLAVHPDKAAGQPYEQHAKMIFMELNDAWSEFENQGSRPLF
Sequence of DCLK2 (human) (Q8N568 whole entry, looked up): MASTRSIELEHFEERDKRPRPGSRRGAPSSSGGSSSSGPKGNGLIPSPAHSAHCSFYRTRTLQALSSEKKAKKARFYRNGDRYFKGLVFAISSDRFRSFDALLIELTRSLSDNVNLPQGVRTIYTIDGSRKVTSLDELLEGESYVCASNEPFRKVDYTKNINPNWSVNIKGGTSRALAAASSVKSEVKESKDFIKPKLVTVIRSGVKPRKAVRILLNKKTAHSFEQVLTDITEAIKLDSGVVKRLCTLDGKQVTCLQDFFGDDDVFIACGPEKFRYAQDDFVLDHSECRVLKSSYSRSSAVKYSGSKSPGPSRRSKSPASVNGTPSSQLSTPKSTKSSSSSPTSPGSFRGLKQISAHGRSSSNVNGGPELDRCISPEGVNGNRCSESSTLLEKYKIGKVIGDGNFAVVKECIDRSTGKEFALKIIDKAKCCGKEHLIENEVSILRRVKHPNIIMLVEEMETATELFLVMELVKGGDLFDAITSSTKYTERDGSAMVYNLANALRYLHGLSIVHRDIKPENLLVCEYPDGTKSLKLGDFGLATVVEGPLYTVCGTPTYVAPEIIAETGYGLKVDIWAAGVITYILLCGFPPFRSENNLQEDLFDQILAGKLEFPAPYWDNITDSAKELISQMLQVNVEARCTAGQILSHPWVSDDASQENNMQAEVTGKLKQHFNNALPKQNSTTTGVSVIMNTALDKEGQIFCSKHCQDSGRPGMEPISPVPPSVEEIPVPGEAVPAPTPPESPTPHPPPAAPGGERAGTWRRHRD

kinase still bound, per cent of control (DCLK1 (human)): 29%
kinase still bound, per cent of control (DCLK2 (human)): 24%
kinase still bound, per cent of control (GAK (human)): 33%
kinase still bound, per cent of control (MAPK7 (human)): 0.15%
kinase still bound, per cent of control (MYLK (human)): 25%
kinase still bound, per cent of control (NLK (human)): 25%
kinase still bound, per cent of control (PKN1 (human)): 27%
kinase still bound, per cent of control (PLK1 (human)): 16%
kinase still bound, per cent of control (PLK3 (human)): 1.7%
kinase still bound, per cent of control (PRKCQ (human)): 31%
kinase still bound, per cent of control (TTK (human)): 13%
SMILES: COc1cc(C(N)=O)ccc1Nc1ncc2c(n1)N(C1CCCC1)[C@@H]1CCC[C@@H]1C(=O)N2C

kinase still bound, per cent of control [1]: 19%
kinase still bound, per cent of control (ACVR1 (human)): 29%
kinase still bound, per cent of control (AURKA (human)): 8.2%
kinase still bound, per cent of control (AURKB (human)): 25%
kinase still bound, per cent of control (AURKC (human)): 3.7%
kinase still bound, per cent of control (BMPR1B (human)): 19%
kinase still bound, per cent of control (CAMKK2 (human)): 31%
kinase still bound, per cent of control (CLK2 (human)): 32%
kinase still bound, per cent of control (CSF1R (human)): 14%
kinase still bound, per cent of control (DCLK1 (human)): 0.3%
kinase still bound, per cent of control (DCLK2 (human)): 0.5%
kinase still bound, per cent of control (FGFR4 (human)): 25%
kinase still bound, per cent of control (FLT3 (human)): 8.1%
kinase still bound, per cent of control [2]: 33%
kinase still bound, per cent of control [3]: 12%
kinase still bound, per cent of control (GAK (human)): 33%
kinase still bound, per cent of control (KIT (human)): 3.1%
kinase still bound, per cent of control [4]: 26%
kinase still bound, per cent of control [5]: 1.8%
kinase still bound, per cent of control (MAP3K3 (human)): 2.2%
kinase still bound, per cent of control (MAPK7 (human)): 0%
kinase still bound, per cent of control (MKNK2 (human)): 1.6%
kinase still bound, per cent of control (NUAK1 (human)): 30%
kinase still bound, per cent of control (NUAK2 (human)): 22%
kinase still bound, per cent of control (PDGFRA (human)): 8%
kinase still bound, per cent of control (PDGFRB (human)): 2.6%
kinase still bound, per cent of control (PIK3CA (human)): 33%
kinase still bound, per cent of control (PIK3CD (human)): 33%
kinase still bound, per cent of control (PIK3CG (human)): 2.2%
kinase still bound, per cent of control (PIP5K1A (human)): 26%
kinase still bound, per cent of control (PLK1 (human)): 24%
kinase still bound, per cent of control (PLK4 (human)): 7.2%
kinase still bound, per cent of control (PRKAA1 (human)): 23%
kinase still bound, per cent of control (PRKD1 (human)): 21%
kinase still bound, per cent of control (PRKD3 (human)): 20%
kinase still bound, per cent of control [6]: 34%
kinase still bound, per cent of control (ROS1 (human)): 28%
kinase still bound, per cent of control (RPS6KA1 KD2 (human)): 34%
kinase still bound, per cent of control (RPS6KA6 KD2 (human)): 30%
kinase still bound, per cent of control (STK16 (human)): 31%
kinase still bound, per cent of control (TAOK1 (human)): 1%
kinase still bound, per cent of control (TAOK3 (human)): 0.4%
kinase still bound, per cent of control (TNK1 (human)): 0.6%
kinase still bound, per cent of control (TNK2 (human)): 31%
kinase still bound, per cent of control [7]: 18%
SMILES: CN1C(=O)c2ccccc2N(C)c2nc(Nc3ccc(N4CCC(O)CC4)cn3)ncc21

kinase still bound, per cent of control (BRSK2 (human)): 0%
kinase still bound, per cent of control (FLT4 (human)): 0%
kinase still bound, per cent of control (MARK4 (human)): 0%
kinase still bound, per cent of control (MERTK (human)): 34%
kinase still bound, per cent of control (PIP5K1A (human)): 6.4%
kinase still bound, per cent of control (PLK1 (human)): 17%
kinase still bound, per cent of control (PRKCD (human)): 0%
kinase still bound, per cent of control [8]: 0%
kinase still bound, per cent of control [6]: 0%
kinase still bound, per cent of control (SRPK1 (human)): 0%
kinase still bound, per cent of control (STK33 (human)): 32%
SMILES: COc1cc(C(=O)NC2CCN(C)CC2)ccc1Nc1ncc2c(n1)N(C1CCCC1)CCC(=O)N2C(C)C
